ChEMBL document CHEMBL1201862, “PubChem BioAssay data set” (2004)
The source made the active and inactive calls.

Experiments:
[1] = HepG2 cell cytotoxicity, dose response, cytotoxicity control, cherry-picks, set 5 (AID 1053118); format: functional, cell-based
[2] = target: Protein S100-A4 (Homo sapiens, UniProt P26447); test: S100A4-myosin IIA binding inhibitor potency, dose response, biochemical, fluorescence polarization, cherry-picked hits (AID 687001); format: functional
[3] = target: T1, Beta-2 adrenergic receptor (Homo sapiens, UniProt P07550); test: beta2AR agonists driving receptor internalization, dose response, cell-based, FAP fluorogen, flow cytometry, cherry pick 1 (AID 588763); format: functional
[4] = target: T1, Beta-2 adrenergic receptor; test: Dose response for HTS for Beta-2AR agonists via FAP method from Powderset3.; format: functional
[5] = target: Protein Wnt-3a (Mus musculus, UniProt P27467); test: SAR analysis of small molecule antagonists of Gli-SUFU in a Wnt3a luminescent reporter assay.; format: functional
[6] = system: HeLa; test: HeLa cell cytotoxicity, dose response, cytotoxicity control, ATP luminescence, cherry-pick samples (AID 687004); format: functional, cell-based; settings: Homo sapiens
[7] = target: Fructose-bisphosphate aldolase (Mycobacterium tuberculosis, UniProt P9WQA3); test: Fluorescence-based biochemical high throughput dose response assay for inhibitors of the fructose-bisphosphate aldolase (FBA) of M. tuberculosis.; format: functional
[8] = inhibitors of TNFa-stimulated NF-kB luciferase reporter, dose response, selectivity assay for EBV LMP1 NF-kB inhibitor project, HEK293 LMP1 reporter cells, dry powder, set 2 (AID 624369); format: functional
[9] = HEK293 cell viability, dose response, counter-screen for EBV LMP1 inhibitor project, dry powder, set 2 (AID 624374); format: functional
[10] = target: Nonstructural protein 1 (Influenza A virus, UniProt Q194T2); format: functional, Influenza A virus (A/California/07/2009(H1N1))
[11] = HeLa cell cytotoxicity, dose response, cytotoxicity control for MgcRacGAP inhibitor project (AID 624300); format: functional
[12] = target: T2, Rac GTPase-activating protein 1 (Homo sapiens, UniProt Q9H0H5); test: MgcRacGAP GTPase-activating activity inhibitors, confirmation, biochemical, ADP Hunter fluorescence, primary and confirmatory (AID 624330); format: functional
T2 sequence (Q9H0H5 whole entry): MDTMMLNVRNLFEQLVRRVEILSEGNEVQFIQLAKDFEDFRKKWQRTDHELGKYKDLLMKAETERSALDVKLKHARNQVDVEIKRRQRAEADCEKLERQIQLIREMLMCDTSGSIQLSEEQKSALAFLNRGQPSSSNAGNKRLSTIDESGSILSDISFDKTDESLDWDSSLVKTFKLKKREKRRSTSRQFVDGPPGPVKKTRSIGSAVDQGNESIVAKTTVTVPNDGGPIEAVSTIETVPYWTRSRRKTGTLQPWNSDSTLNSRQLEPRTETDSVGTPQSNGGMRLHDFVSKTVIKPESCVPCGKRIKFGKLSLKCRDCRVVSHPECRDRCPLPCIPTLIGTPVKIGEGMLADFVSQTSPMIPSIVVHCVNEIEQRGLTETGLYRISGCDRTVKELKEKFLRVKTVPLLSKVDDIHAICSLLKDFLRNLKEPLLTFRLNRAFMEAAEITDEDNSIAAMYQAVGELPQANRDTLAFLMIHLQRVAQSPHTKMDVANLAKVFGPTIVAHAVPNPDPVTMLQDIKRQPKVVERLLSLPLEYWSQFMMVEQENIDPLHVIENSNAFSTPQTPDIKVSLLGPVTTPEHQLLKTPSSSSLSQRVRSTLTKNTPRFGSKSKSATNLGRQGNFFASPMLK

[13] = target: T3, Exodeoxyribonuclease V (Escherichia coli (strain K12), UniProt P04993+P07648+P08394); test: E. coli RecBCD inhibitors, dose response, counter-screen for AddAB inhibitor project, absorbance, V66 E. coli, mutant T4 phage (AID 492957); format: functional, cell-based, Escherichia coli str. K-12 substr. MG1655
T3 sequence (P04993 whole entry): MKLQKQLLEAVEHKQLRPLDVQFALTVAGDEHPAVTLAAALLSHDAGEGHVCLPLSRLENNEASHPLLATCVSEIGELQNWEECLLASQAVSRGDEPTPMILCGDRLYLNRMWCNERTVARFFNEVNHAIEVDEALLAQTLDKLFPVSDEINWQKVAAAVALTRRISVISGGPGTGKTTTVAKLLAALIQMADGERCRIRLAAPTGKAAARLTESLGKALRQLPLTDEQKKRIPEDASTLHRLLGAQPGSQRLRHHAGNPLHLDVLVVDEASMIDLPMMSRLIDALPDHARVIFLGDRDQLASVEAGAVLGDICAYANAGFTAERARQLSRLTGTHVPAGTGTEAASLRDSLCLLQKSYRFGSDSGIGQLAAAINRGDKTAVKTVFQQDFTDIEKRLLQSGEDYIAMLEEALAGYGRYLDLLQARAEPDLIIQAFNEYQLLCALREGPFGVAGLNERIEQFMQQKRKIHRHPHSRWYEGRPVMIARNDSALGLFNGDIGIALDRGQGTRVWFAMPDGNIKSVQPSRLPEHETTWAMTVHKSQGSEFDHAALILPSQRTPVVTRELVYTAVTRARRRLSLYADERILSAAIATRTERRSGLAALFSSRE
T3 sequence (P07648 whole entry): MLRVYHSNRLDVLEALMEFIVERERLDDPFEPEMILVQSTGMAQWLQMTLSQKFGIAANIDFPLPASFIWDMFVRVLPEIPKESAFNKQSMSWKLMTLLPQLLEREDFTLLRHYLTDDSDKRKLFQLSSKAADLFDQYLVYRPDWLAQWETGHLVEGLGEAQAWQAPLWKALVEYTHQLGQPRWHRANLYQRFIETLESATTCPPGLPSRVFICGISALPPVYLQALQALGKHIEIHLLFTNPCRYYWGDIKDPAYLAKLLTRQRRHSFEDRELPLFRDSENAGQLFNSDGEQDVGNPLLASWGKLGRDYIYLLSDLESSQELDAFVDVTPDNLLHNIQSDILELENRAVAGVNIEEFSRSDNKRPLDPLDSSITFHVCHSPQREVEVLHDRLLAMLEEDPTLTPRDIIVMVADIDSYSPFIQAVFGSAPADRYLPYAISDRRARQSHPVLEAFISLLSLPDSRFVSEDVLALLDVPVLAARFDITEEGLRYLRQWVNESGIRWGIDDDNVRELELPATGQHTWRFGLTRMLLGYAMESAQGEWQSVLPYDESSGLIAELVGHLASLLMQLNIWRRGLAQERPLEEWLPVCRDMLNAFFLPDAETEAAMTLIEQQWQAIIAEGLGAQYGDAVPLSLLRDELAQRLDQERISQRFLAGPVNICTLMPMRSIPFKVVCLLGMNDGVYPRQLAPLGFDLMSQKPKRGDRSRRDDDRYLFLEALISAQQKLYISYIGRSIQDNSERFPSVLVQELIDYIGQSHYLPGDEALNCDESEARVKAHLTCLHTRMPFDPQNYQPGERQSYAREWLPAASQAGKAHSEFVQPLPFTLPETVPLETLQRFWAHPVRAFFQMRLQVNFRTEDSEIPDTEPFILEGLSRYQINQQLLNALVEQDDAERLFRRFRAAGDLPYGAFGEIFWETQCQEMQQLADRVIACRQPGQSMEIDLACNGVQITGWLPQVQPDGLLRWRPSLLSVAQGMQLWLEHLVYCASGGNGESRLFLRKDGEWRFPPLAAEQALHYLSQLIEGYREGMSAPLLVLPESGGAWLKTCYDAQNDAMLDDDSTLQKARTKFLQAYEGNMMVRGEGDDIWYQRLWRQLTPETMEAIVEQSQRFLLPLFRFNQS
T3 sequence (P08394 whole entry): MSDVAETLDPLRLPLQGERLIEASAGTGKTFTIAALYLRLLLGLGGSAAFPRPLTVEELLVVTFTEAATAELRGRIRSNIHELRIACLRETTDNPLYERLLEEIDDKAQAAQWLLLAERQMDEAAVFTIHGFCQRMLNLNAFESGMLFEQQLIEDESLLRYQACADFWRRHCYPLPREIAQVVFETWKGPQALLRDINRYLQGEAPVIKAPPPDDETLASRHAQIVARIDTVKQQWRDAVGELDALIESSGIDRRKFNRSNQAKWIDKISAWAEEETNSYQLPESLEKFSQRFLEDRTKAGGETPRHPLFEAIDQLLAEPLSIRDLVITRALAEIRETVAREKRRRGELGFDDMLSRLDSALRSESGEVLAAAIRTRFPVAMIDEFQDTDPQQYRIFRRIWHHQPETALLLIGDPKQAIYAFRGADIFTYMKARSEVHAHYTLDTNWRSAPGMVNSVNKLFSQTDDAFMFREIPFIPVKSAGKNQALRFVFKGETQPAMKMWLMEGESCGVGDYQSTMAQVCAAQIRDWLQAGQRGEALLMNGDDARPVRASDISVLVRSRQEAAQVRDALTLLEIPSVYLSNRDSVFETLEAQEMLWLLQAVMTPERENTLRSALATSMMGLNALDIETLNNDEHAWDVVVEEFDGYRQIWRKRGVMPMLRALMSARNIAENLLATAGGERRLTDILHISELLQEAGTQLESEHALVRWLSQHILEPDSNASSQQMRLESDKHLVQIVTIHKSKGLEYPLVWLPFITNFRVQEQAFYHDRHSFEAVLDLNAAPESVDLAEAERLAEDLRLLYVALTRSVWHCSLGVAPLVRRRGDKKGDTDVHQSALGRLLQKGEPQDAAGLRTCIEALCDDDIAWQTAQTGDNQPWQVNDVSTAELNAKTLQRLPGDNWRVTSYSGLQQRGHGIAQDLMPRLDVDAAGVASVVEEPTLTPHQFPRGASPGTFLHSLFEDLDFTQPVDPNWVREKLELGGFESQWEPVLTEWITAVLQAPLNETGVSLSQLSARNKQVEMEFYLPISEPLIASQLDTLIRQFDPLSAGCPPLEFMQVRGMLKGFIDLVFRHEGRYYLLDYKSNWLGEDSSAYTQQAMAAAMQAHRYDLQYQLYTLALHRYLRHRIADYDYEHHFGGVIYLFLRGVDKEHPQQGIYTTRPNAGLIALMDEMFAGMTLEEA

[14] = Counterscreen for AddAB inhibitors: absorbance-based bacterial cell-based high throughput dose response assay for inhibitors of bacterial viability. [Related pubchem assays (depositor defined):AID435030, AID449728, AID449731, AID488942, AID488955, AID488956]; format: functional
[15] = target: Albumin (Bos taurus, UniProt P02769); test: Counterscreen for inhibitors of T-cell receptor (TCR)-CD3 interaction: Fluorescence-based biochemical high throughput dose response assay to identify inhibitors of T-cell receptor (TCR)-CD3 interaction using a TAMRA-labeled BSA probe.; format: functional
[16] = system: Streptococcus sp. 'group A'; test: growth inhibition of control SK(-) GAS strain, dose response, counter-screen for streptokinase expression inhibitor project, luminescence, kanamycin, BacTiterGlo, confirmation (AID 1900); format: functional, organism-based
[17] = target: T4, Streptokinase A (Streptococcus pyogenes serotype M1, UniProt P10520); test: S. pyogenes streptokinase expression inhibitors, potency, dose response, plasminogen activation absorbance, OD405 (AID 1914); format: functional, Streptococcus pyogenes M1 GAS;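 note: secreted streptokinase activity via plasminogen activation per viability signal from cell pellet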
T4 sequence (P10520 whole entry): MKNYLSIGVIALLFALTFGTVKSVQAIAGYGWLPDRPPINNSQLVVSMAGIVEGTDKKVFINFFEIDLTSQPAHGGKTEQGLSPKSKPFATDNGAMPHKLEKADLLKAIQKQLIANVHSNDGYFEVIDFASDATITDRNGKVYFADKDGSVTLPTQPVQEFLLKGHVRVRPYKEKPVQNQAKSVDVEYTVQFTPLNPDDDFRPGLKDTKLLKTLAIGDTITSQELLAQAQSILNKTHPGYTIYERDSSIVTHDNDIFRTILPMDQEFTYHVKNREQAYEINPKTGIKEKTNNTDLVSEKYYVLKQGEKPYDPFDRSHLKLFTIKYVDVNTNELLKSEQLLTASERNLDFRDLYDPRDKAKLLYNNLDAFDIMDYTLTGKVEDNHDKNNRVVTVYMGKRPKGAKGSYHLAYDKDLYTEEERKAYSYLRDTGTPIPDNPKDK

[18] = system: Streptococcus; test: Group A Streptococcus viability loss, dose response, counter-screen for streptokinase expression inhibitor project, luminescence, BacTiterGlo (AID 1915); format: functional, organism-based;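 note: potency for reduction of bacterial viability or growth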
[19] = target: T5, Probable nicotinate-nucleotide adenylyltransferase (Staphylococcus aureus (strain N315), UniProt P65502); format: functional, Staphylococcus aureus subsp. aureus N315;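 for IC50 Mean: confirmatory dose-response retesting of NadD inhibitor hits first found in an ultra-high-throughput screen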
[20] = target: T5, Probable nicotinate-nucleotide adenylyltransferase; format: functional, Staphylococcus aureus subsp. aureus N315; settings: read-out: IC50_Mean

T5 sequence (P65502 whole entry): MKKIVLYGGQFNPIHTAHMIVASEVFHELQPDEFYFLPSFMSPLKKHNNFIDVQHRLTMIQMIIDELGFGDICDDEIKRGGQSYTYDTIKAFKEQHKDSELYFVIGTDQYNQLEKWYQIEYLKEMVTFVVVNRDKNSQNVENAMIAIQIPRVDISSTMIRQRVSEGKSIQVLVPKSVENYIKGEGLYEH
T1 sequence (P07550 whole entry): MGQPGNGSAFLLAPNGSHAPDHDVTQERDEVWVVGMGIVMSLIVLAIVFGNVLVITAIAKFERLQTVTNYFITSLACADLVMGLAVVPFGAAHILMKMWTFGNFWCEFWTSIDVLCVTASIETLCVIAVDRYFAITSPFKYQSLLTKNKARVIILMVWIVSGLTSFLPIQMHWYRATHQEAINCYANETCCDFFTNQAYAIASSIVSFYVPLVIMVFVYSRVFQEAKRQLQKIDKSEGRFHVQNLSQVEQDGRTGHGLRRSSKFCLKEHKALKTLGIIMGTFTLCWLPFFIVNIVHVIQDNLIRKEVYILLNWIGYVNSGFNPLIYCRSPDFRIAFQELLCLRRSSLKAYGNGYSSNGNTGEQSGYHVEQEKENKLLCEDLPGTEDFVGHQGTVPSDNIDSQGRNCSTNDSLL
Chain of Protein Wnt-3a (P27467 whole entry): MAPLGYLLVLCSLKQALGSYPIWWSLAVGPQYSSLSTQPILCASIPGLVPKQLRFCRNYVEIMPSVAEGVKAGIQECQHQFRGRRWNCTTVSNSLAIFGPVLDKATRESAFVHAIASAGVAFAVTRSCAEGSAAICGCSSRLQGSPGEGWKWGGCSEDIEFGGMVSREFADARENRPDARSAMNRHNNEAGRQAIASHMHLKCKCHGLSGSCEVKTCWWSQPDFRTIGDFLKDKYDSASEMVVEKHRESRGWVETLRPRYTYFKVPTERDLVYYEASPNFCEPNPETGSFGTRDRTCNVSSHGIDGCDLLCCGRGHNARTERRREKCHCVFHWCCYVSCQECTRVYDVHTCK
Chain of Protein S100-A4 (P26447 whole entry): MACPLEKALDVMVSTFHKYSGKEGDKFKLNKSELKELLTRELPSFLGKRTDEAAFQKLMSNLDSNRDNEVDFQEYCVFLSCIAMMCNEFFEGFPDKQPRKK
Chain of Albumin (P02769 whole entry): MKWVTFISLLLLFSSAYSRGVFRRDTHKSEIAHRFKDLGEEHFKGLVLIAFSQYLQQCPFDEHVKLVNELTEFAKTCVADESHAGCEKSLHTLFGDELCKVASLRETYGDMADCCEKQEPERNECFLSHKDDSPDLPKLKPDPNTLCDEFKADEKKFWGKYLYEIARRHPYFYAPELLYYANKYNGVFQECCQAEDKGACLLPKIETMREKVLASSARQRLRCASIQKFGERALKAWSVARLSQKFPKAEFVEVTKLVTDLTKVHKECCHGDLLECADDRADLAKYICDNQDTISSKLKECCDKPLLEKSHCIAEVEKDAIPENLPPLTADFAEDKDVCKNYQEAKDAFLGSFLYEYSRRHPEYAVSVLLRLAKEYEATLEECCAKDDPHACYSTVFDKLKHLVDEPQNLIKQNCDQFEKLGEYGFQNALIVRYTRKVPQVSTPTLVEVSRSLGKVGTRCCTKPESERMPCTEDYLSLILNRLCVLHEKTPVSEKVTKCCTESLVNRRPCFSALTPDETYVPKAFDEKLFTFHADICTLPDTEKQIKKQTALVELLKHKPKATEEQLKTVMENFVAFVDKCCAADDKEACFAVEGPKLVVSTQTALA
Chain of Nonstructural protein 1 (Q194T2 whole entry): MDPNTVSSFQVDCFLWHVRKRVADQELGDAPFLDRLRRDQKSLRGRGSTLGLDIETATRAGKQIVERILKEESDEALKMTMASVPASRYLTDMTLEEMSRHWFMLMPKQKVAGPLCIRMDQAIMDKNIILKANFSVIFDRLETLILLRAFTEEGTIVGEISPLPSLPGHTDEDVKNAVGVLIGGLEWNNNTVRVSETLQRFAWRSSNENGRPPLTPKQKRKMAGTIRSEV
Chain of Fructose-bisphosphate aldolase (P9WQA3 whole entry): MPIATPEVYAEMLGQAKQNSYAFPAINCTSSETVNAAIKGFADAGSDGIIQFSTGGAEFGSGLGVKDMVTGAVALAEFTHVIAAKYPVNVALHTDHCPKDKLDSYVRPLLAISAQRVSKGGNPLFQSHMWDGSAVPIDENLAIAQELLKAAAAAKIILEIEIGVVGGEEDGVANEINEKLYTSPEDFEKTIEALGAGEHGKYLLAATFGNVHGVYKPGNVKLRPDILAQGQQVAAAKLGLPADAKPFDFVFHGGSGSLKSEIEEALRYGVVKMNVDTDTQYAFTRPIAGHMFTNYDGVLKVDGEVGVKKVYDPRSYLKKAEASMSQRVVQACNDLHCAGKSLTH

Structure (SMILES): CO[C@H]1CN(C)C(=O)c2ccc(NC(=O)Nc3ccc(Cl)c(Cl)c3)cc2OC[C@H](C)NC[C@H]1C
- AC50 [1]: 13.5 µM (active)

Structure (SMILES): CSCc1cc(C(=O)NC2CC2)c(N)s1
- AC50 [2]: 17.5 µM (active)

Structure (SMILES): Cc1ccc(OCc2cc(C(=O)N(C)Cc3cnn(-c4ccccc4C)c3)no2)cn1
- EC50 [3]: 0.305 µM (active)
- EC50 [4]: 0.0555 µM (active)

Structure (SMILES): O=C(Nc1cc(N2CCCCC2)ncn1)c1ccco1
- IC50 [5]: > 21.8 µM (inactive)

Structure (SMILES): COc1cccc(S(=O)(=O)N2C[C@@H](O)COC[C@H]3O[C@H](CC(=O)Nc4ccccc4)CC[C@@H]32)c1
- AC50 [6]: > 52 µM (inactive)

Structure (SMILES): COc1ccc2nc(NCCCNC(=O)c3cc(OC)c(OC)c(OC)c3)c(C#N)cc2c1
- IC50 [7]: 1.78 µM (active)

Structure (SMILES): COc1cccc(C#Cc2ccc([C@@H]3[C@@H](C#N)N(C(=O)c4ccccn4)[C@@H]3CO)cc2)c1
- AbsAC35 [8]: 84.96 µM
- AbsAC35 [9]: 328.8 µM

Structure (SMILES): CN(C)c1ccc(C=c2c3ccccc3n3c2cc(-c2ccc(Cl)cc2)[n+]3C)cc1
- IC50 [10]: 5.85 µM (active)
- CC50 [11]: 18.9 µM (active)
- IC50 [12]: 44.9 µM (active)

Structure (SMILES): O=C(NNC(=O)C1CCN(S(=O)(=O)c2ccccc2C(F)(F)F)CC1)c1ccccc1O
- IC50 [13]: > 119 µM (inactive)
- IC50 [14]: > 119 µM (inactive)
- IC50 [15]: > 94.1 µM (inactive)

Structure (SMILES): Cc1c(C(=O)NNC(=O)c2ccccc2O)oc2ccc(Br)cc12
- EC50 [16]: 8.43 µM (active)
- EC50 [17]: > 150 µM (not active)
- EC50 [18]: 8.5 µM (active)
- IC50 [13]: > 119 µM (inactive)
- IC50 [14]: > 119 µM (inactive)
- IC50 [19]: 15.3 µM (active)
- IC50 [20]: 45.8 µM (active)
